{
  "source": "paper PMC5749289",
  "about": "“Cytotoxicity Study of Cyclopentapeptide Analogues of Marine Natural Product Galaxamide towards Human Breast Cancer Cells” (Oxidative Medicine and Cellular Longevity, 2017)",
  "key": {"[1]": {"system": "human breast carcinoma MB-MDA-231", "assay": "cells", "assay_type": "cell-based", "details": "48 h", "experimental": "(§1) Human hepatocellular carcinoma HepG2, human breast carcinoma MCF-7, human epitheloid cervix carcinoma HeLa, human breast carcinoma MB-MDA-231 cell lines, and a normal human umbilical vein endothelial cell line (HUVECs) were obtained from the China Cell Bank of the Institute of Biochemistry and were cultured in a DMEM culture medium (DMEM, Corning, NY, USA) containing 10% fetal bovine serum (FBS, Hyclone, Logan, UT, USA), 1% penicillin-streptomycin, and an antifungal agent in a 5% CO2-humidified atmosphere at 37°C. The culture medium was replaced once in a day. Trypsin digestion method was adopted for cell propagation. Upon reaching 80–90% confluence, the cells were rinsed twice with PBS. A certain amount of 0.25% trypsin digestion solution was then added and maintained for 3–5 min at 37°C. Afterward, DMEM culture medium containing 10% fetal bovine serum was added to terminate the digestion. The cells were then blown well to form single-cell suspensions.\n(§2) The cell viability was determined by measuring the ability of cells to transform MTT (3-(4,5-dimethylthiazol-2-yl)-2,5-diphenyltetrazolium bromide) (GENView, Houston, TX, USA) to a purple formazan dye. The cells were seeded in 96-well cell culture plates at 2.5 × 10^3 cells/well for 24 h. The cells were then incubated with galaxamide and its analogues for 48 h. After incubation, 20 μL/well of MTT solution (5 mg/mL phosphate buffered saline) was added and incubated for 5 h. The medium was aspirated and replaced with 100 μL/well of DMSO to dissolve the formazan salt. The color intensity of the formazan solution, which reflects the cell growth condition, was measured at 570 nm using a microplate spectrophotometer (SpectroAma™ 250, Winooski, VT, USA)."}, "[2]": {"system": "human breast carcinoma MCF-7", "assay": "cells", "assay_type": "cell-based", "experimental": "as §1, §2"}, "[3]": {"system": "human epitheloid cervix carcinoma HeLa", "assay": "cells", "assay_type": "cell-based", "details": "48 h", "experimental": "as §1, §2"}, "[4]": {"system": "human hepatocellular carcinoma HepG2", "assay": "cells", "assay_type": "cell-based", "details": "48 h", "experimental": "as §1, §2"}, "[5]": {"system": "normal human umbilical vein endothelial cell line (HUVECs)", "assay_type": "cell-based", "details": "48 h", "experimental": "as §1, §2"}, "MCF-7 cells [6]": {"system": "MCF-7 cells", "assay": "Mitochondrial membrane potential, JC-1 staining, flow cytometry", "assay_type": "cell-based, human", "details": "MCF-7, 2.5, 5.0 and 10.0 μg/mL, 48 h", "experimental": "The cell suspension (2 mL) with a concentration of 1 × 10^5 cells/mL was inoculated per well in 6-well plates for 12 h. After 48 h of incubation with galaxamide and representative compound at the concentration of 0, 2.5, 5, and 10 μg/mL, the supernatant was aspirated and the cells were washed twice with PBS and digested with 0.25% trypsin. The cells were suspended by pipetting, followed by centrifugation (1000 rpm, 5 min). The supernatant was aspirated and the cells were washed with PBS and centrifuged again to obtain a cell pellet. The cells were resuspended by adding and thoroughly mixing 500 μL of PBS in a microcentrifuge tube. Finally, the samples were stained with JC-1 (5,5′,6,6′-tetrachloro-1,1′,3,3′-tetraethylbenzimi-dazolylcarbocyanine iodide) and incubated in darkness at 37°C for 15 min. After the treatment, the cells were detected by flow cytometry."}, "MCF-7 cells [7]": {"system": "MCF-7 cells", "assay": "Intracellular ROS assay, DCFH-DA, flow cytometry", "assay_type": "cell-based, human", "details": "MCF-7, 2.5, 5.0 and 10.0 μg/mL, 48 h", "experimental": "Two milliliters of cell suspension with a cell concentration of 1 × 10^5 cells/mL was inoculated per well in 6-well plates. After synchronization, the cells were incubated with galaxamide and representative analogue (0, 2.5, 5, and 10 μg/mL) for 48 h. Afterwards, the supernatant was aspirated and the cells were washed twice with PBS and digested with 0.25% trypsin. Then, DMEM supplemented with 10% fetal bovine serum was added to terminate digestion. The cells were suspended by pipetting, followed by centrifugation (1000 rpm, 5 min). The supernatant was aspirated and the cells were washed once with PBS and centrifuged again to obtain a cell pellet. The cells were resuspended by adding and thoroughly mixing […] in a microcentrifuge tube. The samples were then stained with DCFH-DA ([…]) and analyzed by flow cytometry."}, "MCF-7 cells [8]": {"system": "MCF-7 cells", "assay": "Annexin V-FITC/PI apoptosis, flow cytometry", "assay_type": "cell-based, human", "details": "MCF-7, 2.5, 5 and 10 μg/mL, 48 h", "experimental": "The apoptotic cells were quantified using an Annexin V-FITC (fluorescein isothiocyanate) (Sigma-Aldrich, St. Louis, MO, USA) cell apoptosis assay kit according to the instruction provided with the kit. In brief, about 1.5 × 10^5 cells were plated in 6-well plates and treated with galaxamide and representative compound (0, 2.5, 5, and 10 μg/mL) for 48 h. The cells were resuspended in […] binding buffer. Afterwards, […] was added and then incubated in darkness at room temperature for 10 min. The cells were again resuspended in […] binding buffer and stained with […] (propidium iodide). The prepared cells were then analyzed using a flow cytometry (Coulter Epics Elite, Miami, FL, USA). The cells in the FITC-positive and PI-negative fractions were regarded as apoptotic cells."}, "MCF-7 cells [9]": {"system": "MCF-7 cells", "assay": "Cell cycle analysis by PI staining, flow cytometry", "assay_type": "cell-based, human", "details": "MCF-7, 2.5, 5.0 and 10.0 μg/mL, 48 h", "experimental": "MCF-7 cells with the density of about 1.5 × 10^5 were incubated with galaxamide and representative analogue (0, 2.5, 5, and 10 μg/mL) for 48 h. Afterwards, collected cells were washed twice with PBS and centrifugation (1000 rpm, 5 min), then fixed using 70% ethanol for 12 h at 4°C. Ethanol was removed by centrifugation (2000 rpm, 5 min), and the cells were washed twice with PBS. Cells were then resuspended in […] and kept at 37°C for 15 min. The cell cycle was analyzed by flow cytometry measuring the amount of PI-labeled DNA in fixed cells."}, "[10]": {"details": "from Table 1 IC50 values (fits MCF-7)"}},
  "note": "Where a SMILES comes first, the peptide text is derived from it.",
  "data": [
    {"smiles": "CC(C)C[C@@H]1NC(=O)[C@H](CC(C)C)N(C)C(=O)[C@H](Cc2ccccc2)NC(=O)[C@H](CC(C)C)N(C)C(=O)[C@H](CC(C)C)NC1=O", "note": "[Compound 1, cyclo(Phe-N-Me-Leu-Leu-Leu-N-Me-Leu)]", "values": [
      {"measurement": "IC50 (μg/mL) values in various cell lines, MD-MBA-231", "setting": "[1]", "result": "5.83 ± 0.45", "unit": "µg/mL"},
      {"measurement": "IC50 (μg/mL) values in various cell lines, MCF-7", "setting": "[2]; 48 h", "result": "4.76 ± 1.36", "unit": "µg/mL"},
      {"measurement": "IC50 (μg/mL) values in various cell lines, HeLa", "setting": "[3]", "result": "13.22 ± 1.12", "unit": "µg/mL"},
      {"measurement": "IC50 (μg/mL) values in various cell lines, HepG2", "setting": "[4]", "result": "6.25 ± 1.03", "unit": "µg/mL"},
      {"measurement": "IC50 (μg/mL) values in various cell lines, HUVECs", "setting": "[5]", "result": ">40", "unit": "µg/mL"}
    ]},
    {"smiles": "CC(C)C[C@@H]1NC(=O)[C@H](CC(C)C)N(C)C(=O)[C@H](Cc2ccc3ccccc3c2)NC(=O)[C@H](CC(C)C)N(C)C(=O)[C@H](CC(C)C)NC1=O", "note": "[Compound 2, cyclo(Nal-N-Me-Leu-Leu-Leu-N-Me-Leu)] (HELM PEPTIDE1{[O=C([C@H](Cc1ccc2ccccc2c1)N[*:1])[*:2]].[meL].L.L.[meL]}$PEPTIDE1,PEPTIDE1,1:R1-5:R2$$$V2.0)", "values": [
      {"measurement": "IC50 (μg/mL) values in various cell lines, MD-MBA-231", "setting": "[1]", "result": "4.48 ± 2.24", "unit": "µg/mL"},
      {"measurement": "IC50 (μg/mL) values in various cell lines, MCF-7", "setting": "[2]; 48 h", "result": "3.16 ± 0.92", "unit": "µg/mL"},
      {"measurement": "IC50 (μg/mL) values in various cell lines, HepG2", "setting": "[4]", "result": "8.42 ± 1.82", "unit": "µg/mL"},
      {"measurement": "IC50 (μg/mL) values in various cell lines, HUVECs", "setting": "[5]", "result": ">40", "unit": "µg/mL"}
    ]},
    {"smiles": "N.N.[Cl][Pt][Cl]", "note": "[DPP, reference compound]", "values": [
      {"measurement": "IC50 (μg/mL) values in various cell lines, MD-MBA-231", "setting": "[1]; MD-MBA-231, MTT, mean ± SD of three experiments", "result": "13.75 ± 0.56", "unit": "µg/mL"},
      {"measurement": "IC50 (μg/mL) values in various cell lines, MCF-7", "setting": "[2]; MCF-7, MTT, 48 h, mean ± SD of three experiments", "result": "14.61 ± 2.01", "unit": "µg/mL"},
      {"measurement": "IC50 (μg/mL) values in various cell lines, HeLa", "setting": "[3]; HeLa, MTT, mean ± SD of three experiments", "result": "8.90 ± 0.89", "unit": "µg/mL"},
      {"measurement": "IC50 (μg/mL) values in various cell lines, HepG2", "setting": "[4]; HepG2, MTT, mean ± SD of three experiments", "result": "10.43 ± 1.23", "unit": "µg/mL"}
    ]},
    {"smiles": "COc1cccc2c1C(=O)c1c(O)c3c(c(O)c1C2=O)C[C@@](O)(C(=O)CO)C[C@@H]3O[C@H]1C[C@H](N)[C@H](O)[C@H](C)O1", "note": "[Doxorubicin, reference compound]", "values": [
      {"measurement": "IC50", "setting": "[1]; Homo sapiens, MD-MBA-231, MTT, mean ± SD of three experiments, read-out: IC50 (μg/mL) values in various cell lines, MD-MBA-231", "result": "1.29 ± 0.57", "unit": "µg/mL"},
      {"measurement": "IC50", "setting": "[2]; Homo sapiens, MCF7, MCF-7, MTT, 48 h, mean ± SD of three experiments, read-out: IC50 (μg/mL) values in various cell lines, MCF-7", "result": "0.5 ± 0.48", "unit": "µg/mL"},
      {"measurement": "IC50", "setting": "[3]; Homo sapiens, HeLa, MTT, mean ± SD of three experiments, read-out: IC50 (μg/mL) values in various cell lines, HeLa", "result": "0.32 ± 0.22", "unit": "µg/mL"},
      {"measurement": "IC50", "setting": "[4]; Homo sapiens, HepG2, MTT, mean ± SD of three experiments, read-out: IC50 (μg/mL) values in various cell lines, HepG2", "result": "2.27 ± 0.24", "unit": "µg/mL"}
    ]},
    {"smiles": "CC(C)C[C@@H]1NC(=O)[C@H](CC(C)C)N(C)C(=O)[C@H](CC(C)C)NC(=O)[C@H](CC(C)C)N(C)C(=O)[C@H](CC(C)C)NC1=O", "note": "[Galaxamide, galaxamide] (HELM PEPTIDE1{L.L.[meL].L.[meL]}$PEPTIDE1,PEPTIDE1,1:R1-5:R2$$$V2.0)", "values": [
      {"measurement": "JC-1 fluorescence ratio (red/green), MMP", "setting": "MCF-7 cells [6]", "result": "reduced dose dependently"},
      {"measurement": "intracellular ROS", "setting": "MCF-7 cells [7]", "result": "induced ROS in a dose-dependent manner"}
    ]},
    {"smiles": "CC(C)C[C@@H]1NC(=O)[C@H](CC(C)C)N(C)C(=O)[C@H](Cc2c[nH]c3ccccc23)NC(=O)[C@H](CC(C)C)N(C)C(=O)[C@H](CC(C)C)NC1=O", "note": "[Compound 3, cyclo(Trp-N-Me-Leu-Leu-Leu-N-Me-Leu)] (HELM PEPTIDE1{L.L.[meL].W.[meL]}$PEPTIDE1,PEPTIDE1,1:R1-5:R2$$$V2.0)", "values": [
      {"measurement": "IC50 (μg/mL) values in various cell lines, MD-MBA-231", "setting": "[1]", "result": "3.51 ± 1.32", "unit": "µg/mL"},
      {"measurement": "cytotoxicity relative to parent structure galaxamide", "setting": "[2]", "result": "almost sixfold higher cytotoxicity"},
      {"measurement": "IC50 (μg/mL) values in various cell lines, MCF-7", "setting": "[2]; 48 h", "result": "1.72 ± 0.85", "unit": "µg/mL"},
      {"measurement": "fold less active than doxorubicin", "setting": "[2]; [10]", "result": 3.44, "unit": "fold"},
      {"measurement": "fold more active than anticancer drug DPP", "setting": "[2]; [10]", "result": 8.49, "unit": "fold"},
      {"measurement": "IC50 (μg/mL) values in various cell lines, HeLa", "setting": "[3]", "result": "5.32 ± 0.42", "unit": "µg/mL"},
      {"measurement": "IC50 (μg/mL) values in various cell lines, HepG2", "setting": "[4]", "result": "3.98 ± 0.71", "unit": "µg/mL"},
      {"measurement": "IC50 (μg/mL) values in various cell lines, HUVECs", "setting": "[5]", "result": ">40", "unit": "µg/mL"},
      {"measurement": "induction of apoptosis", "setting": "MCF-7 cells [8]", "result": "significantly induced the apoptosis of human breast cancer MCF-7 cells in a dose-dependent manner"},
      {"measurement": "cell cycle arrest", "setting": "MCF-7 cells [9]", "result": "induced a significant G1 phase arrest of cell cycle progression in a dose-dependent manner"},
      {"measurement": "JC-1 fluorescence ratio (red/green), MMP", "setting": "MCF-7 cells [6]", "result": "reduced dose dependently"},
      {"measurement": "intracellular ROS", "setting": "MCF-7 cells [7]", "result": "induced ROS in a dose-dependent manner"}
    ]}
  ]
}
